What follows are compounds tested against Bek (Homo sapiens, UniProt P21802) (assay: Inhibitory activity against Bek-autophosphorylation using ELISA method in OCUM-2MD3 cells). Conditions: 1 hr with compound, read-out: IC50 (concentration necessary for inhibiting 50% of Bek-phosphorylation).
Format: cell-based
Summary of the method: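 OCUM-2MD3 human scirrhous gastric cancer cells in 0.1% FCS were exposed to compound for 1 hr at 37° C, then lysed. Phospho-tyrosine proteins were captured with anti-phosphotyrosine antibody, probed with anti-Bek antibody and peroxidase read-out (A450). Positive control (1000 nM) set 0%, untreated 100%; IC50 from multi-level dilutions.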

Sequence of Bek (P21802 431-767 limits assumed): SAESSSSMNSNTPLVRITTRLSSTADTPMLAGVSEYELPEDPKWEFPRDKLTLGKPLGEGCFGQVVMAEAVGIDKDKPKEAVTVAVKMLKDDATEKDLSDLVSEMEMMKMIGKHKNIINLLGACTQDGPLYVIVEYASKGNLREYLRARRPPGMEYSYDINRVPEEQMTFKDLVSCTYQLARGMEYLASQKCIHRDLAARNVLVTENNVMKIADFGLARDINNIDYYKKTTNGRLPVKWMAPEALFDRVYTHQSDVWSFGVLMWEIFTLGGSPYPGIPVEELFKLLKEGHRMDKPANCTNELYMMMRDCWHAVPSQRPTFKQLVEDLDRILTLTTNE

Row | Compound | IC50
1 | COc1cc2c(Oc3ccc(NC(=O)NCCC(C)(C)C)cc3)ccnc2cc1OCCN1CCC(O)CC1 [Compound 373, 1-(3,3-Dimethyl-butyl)-3-(4-{7-[2-(4-hydroxy-piperidin-1-yl)-ethoxy]-6-methoxy-quinolin-4-yloxy}-phenyl)-urea] | < 10 nM
2 | COc1cc2c(Oc3ccc(Nc4ccc(C(C)(C)C)cc4)cc3)ccnc2cc1OCCN1CCCCCC1 [Compound 50, {4-[7-(2-Azepan-1-ylethoxy)-6-methoxyquinolin-4-yloxy]phenyl}-(4-tert-butylphenyl)amine] | 35 nM
3 | COc1cc2c(Oc3ccc(Nc4ccc(C(C)(C)C)cc4)cc3)ccnc2cc1OCCCN1CCCCC1 [Compound 34, (4-Tert-butylphenyl)-{4-[6-methoxy-7-(3-piperidin-1-ylpropoxy)-quinolin-4-yloxy]phenyl}amine] | 219 nM
4 | COc1cc2c(Oc3ccc(Nc4ccc(C(C)(C)C)cc4)c(Cl)c3)ccnc2cc1OCCCN1CCC(CO)CC1 [Compound 277, [1-(3-{4-[4-(4-Tert-butyl-phenylamino)-3-chloro-phenoxy]-6-methoxy-quinolin-7-yloxy}-propyl)-piperidin-4-yl]-methanol] | 617 nM
5 | COc1cc2c(Oc3ccc(NC(=O)NCCC(C)(C)C)cc3)ccnc2cc1OCCCCBr [Compound 148, 1-{4-[7-(4-Bromo-butoxy)-6-methoxy-quinolin-4-yloxy]-phenyl}-3-(3,3-dimethyl-butyl)-urea] | 1670 nM
6 | COc1cc2c(Oc3ccc(Nc4ccc(C(C)(C)C)cc4)cc3)ccnc2cc1OCC1CCCN1C (stereo not drawn) [Compound 58, (4-Tert-butylphenyl)-{4-[6-methoxy-7-(1-methylpyrrolidin-2-ylmethoxy)quinolin-4-yloxy]phenyl}amine] | 1200 nM
7 | COc1cc2c(Oc3ccc(Nc4ccc(C(C)(C)C)cc4)c(F)c3)ccnc2cc1OCCN1CCOCC1 [Compound 79, (4-Tert-butylphenyl)-{2-fluoro-4-[6-methoxy-7-(2-morpholin-4-ylethoxy)quinolin-4-yloxy]phenyl}amine] | 159 nM
8 | COc1cc2c(Oc3ccc(NC(=O)NCCC(C)(C)C)c(Cl)c3)ccnc2cc1OCCN(CCO)CCO [Compound 176, 1-[4-(7-{2-[Bis-(2-hydroxy-ethyl)-amino]-ethoxy}-6-methoxy-quinolin-4-yloxy)-2-chloro-phenyl]-3-(3,3-dimethyl-butyl)-urea] | < 10 nM
9 | COc1cc2c(Oc3ccc(Nc4ccc(C(C)(C)C)cc4)cc3)ccnc2cc1OCCC(N)=O [Compound 26, 3-{4-[4-(4-Tert-butylphenylamino)phenoxy]-6-methoxyquinolin-7-yloxy}propionamide] | 318 nM
10 | COc1cc2c(Oc3ccc(NC(=O)NCCC(C)(C)C)cc3)ccnc2cc1OCCCN1CC(C)OC(C)C1 (stereo not drawn) [Compound 244, 1-(3,3-Dimethyl-butyl)-3-(4-{7-[3-(2,6-dimethyl-morpholin-4-yl)-propoxy]-6-methoxy-quinolin-4-yloxy}-phenyl)-urea] | < 10 nM
11 | COc1cc2c(Oc3ccc(NC(=O)NCCC(C)(C)C)cc3)ccnc2cc1OCCCN1CCC(c2ccccc2)CC1 [Compound 246, 1-(3,3-Dimethyl-butyl)-3-(4-{6-methoxy-7-[3-(4-phenyl-piperidin-1-yl)-propoxy]-quinolin-4-yloxy}-phenyl)-urea] | 30.9 nM
12 | COc1ccc(Nc2ccc(Oc3ccnc4cc(OC)c(OC)cc34)cc2)cc1 [Compound 1, [4-(6,7-Dimethoxyquinolin-4-yloxy)phenyl]-(4-methoxyphenyl)-amine] | 3930 nM
13 | COc1cc2nccc(Oc3ccc(Nc4ccc(C(C)(C)C)cc4)cc3OC)c2cc1OC [Compound 15, (4-Tert-butylphenyl)-[4-(6,7-dimethoxyquinolin-4-yloxy)-3-methoxyphenyl]amine] | 430 nM
14 | COc1cc2c(Oc3ccc(Nc4ccc(C(C)(C)C)cc4)cc3Cl)ccnc2cc1OCCCN1CCC(CO)CC1 [Compound 310, [1-(3-{4-[4-(4-Tert-butyl-phenylamino)-2-chloro-phenoxy]-6-methoxy-quinolin-7-yloxy}-propyl)-piperidin-4-yl]-methanol] | 184 nM
15 | COc1cc2c(Oc3ccc(NC(=O)NCCC(C)(C)C)cc3Cl)ccnc2cc1OCCN1CCC(CCO)CC1 [Compound 315, 1-[3-Chloro-4-(7-{2-[4-(2-hydroxy-ethyl)-piperidin-1-yl]-ethoxy}-6-methoxy-quinolin-4-yloxy)-phenyl]-3-(3,3-dimethyl-butyl)-urea] | 133 nM
16 | COc1cc2c(Oc3ccc(Nc4ccc(C(C)(C)C)cc4)cc3)ccnc2cc1OCC(O)CN(C)C (stereo not drawn) [Compound 67, 1-{4-[4-(4-Tert-butylphenylamino)phenoxy]-6-methoxyquinolin-7-yloxy}-3-dimethylaminopropan-2-ol] | 189 nM

Further lines, results first:

Row | IC50 | Compound
17 | 38.4 nM | COc1cc2c(Oc3ccc(NC(=O)NCCC(C)(C)C)c(F)c3)ccnc2cc1OCCN1CCC(CCO)CC1 [Compound 301, 1-(3,3-Dimethyl-butyl)-3-[2-fluoro-4-(7-{2-[4-(2-hydroxy-ethyl)-piperidin-1-yl]-ethoxy}-6-methoxy-quinolin-4-yloxy)-phenyl]-urea]
18 | 26.6 nM | COc1cc2c(Oc3ccc(NC(=O)NCCC(C)(C)C)c(F)c3)ccnc2cc1OCCCN1CCC(O)CC1 [Compound 302, 1-(3,3-Dimethyl-butyl)-3-(2-fluoro-4-{7-[3-(4-hydroxy-piperidin-1-yl)-propoxy]-6-methoxy-quinolin-4-yloxy}-phenyl)-urea]
19 | 151 nM | COc1cc2c(Oc3ccc(NC(=O)NCCC(C)(C)C)cc3)ccnc2cc1OCCN1CCC(Cc2ccccc2)CC1 [Compound 122, 1-(4-{7-[2-(4-Benzyl-piperidin-1-yl)-ethoxy]-6-methoxy-quinolin-4-yloxy}-phenyl)-3-(3,3-dimethyl-butyl)-urea]
20 | < 10 nM | COc1cc2nccc(Oc3ccc(NC(=O)NC4CCCC(C)(C)C4)c(Cl)c3)c2cc1OC (stereo not drawn) [Compound 110, 1-[2-Chloro-4-(6,7-dimethoxy-quinolin-4-yloxy)-phenyl]-3-(3,3-dimethyl-cyclohexyl)-urea]
21 | 54.7 nM | COc1cc2c(Oc3ccc(Nc4ccc(C(C)(C)C)cc4)cc3)ccnc2cc1OCCN(CC(C)O)CC(C)O (stereo not drawn) [Compound 352, 1-[(2-{4-[4-(4-Tert-butyl-phenylamino)-phenoxy]-6-methoxy-quinolin-7-yloxy}-ethyl)-(2-hydroxy-propyl)-amino]-propan-2-ol]
22 | 14.4 nM | COc1cc2c(Oc3ccc(NC(=O)NCCC(C)(C)C)cc3F)ccnc2cc1OCCN1CCC(CO)CC1 [Compound 295, 1-(3,3-Dimethyl-butyl)-3-(3-fluoro-4-{7-[2-(4-hydroxymethyl-piperidin-1-yl)-ethoxy]-6-methoxy-quinolin-4-yloxy}-phenyl)-urea]
23 | 11 nM | COc1cc2c(Oc3ccc(NC(=O)NCCC(C)(C)C)c(Cl)c3)ccnc2cc1OCCCN1CCC(CO)CC1 [Compound 266, 1-(2-Chloro-4-{7-[3-(4-hydroxymethyl-piperidin-1-yl)-propoxy]-6-methoxy-quinolin-4-yloxy}-phenyl)-3-(3,3-dimethyl-butyl)-urea]
24 | 468 nM | COc1cc2c(Oc3ccc(Nc4ccc(C(C)(C)C)cc4)cc3)ccnc2cc1OCCN(CCO)C(C)C [Compound 367, 2-[(2-{4-[4-(4-Tert-butyl-phenylamino)-phenoxy]-6-methoxy-quinolin-7-yloxy}-ethyl)-isopropyl-amino]-ethanol]
25 | 26.2 nM | COc1cc2c(Oc3ccc(NC(=O)NCCC(C)(C)C)c(Cl)c3)ccnc2cc1OCCCN1CCCCCC1 [Compound 181, 1-{4-[7-(3-Azepan-1-yl-propoxy)-6-methoxy-quinolin-4-yloxy]-2-chloro-phenyl}-3-(3,3-dimethyl-butyl)-urea]
26 | 16.6 nM | COc1cc2c(Oc3ccc(NC(=O)NCCC(C)(C)C)cc3Cl)ccnc2cc1OCCCN1CCC(O)CC1 [Compound 338, 1-(3-Chloro-4-{7-[3-(4-hydroxy-piperidin-1-yl)-propoxy]-6-methoxy-quinolin-4-yloxy}-phenyl)-3-(3,3-dimethyl-butyl)-urea]
27 | 248 nM | COc1cc2c(Oc3ccc(Nc4ccc(C(C)(C)C)cc4)cc3)ccnc2cc1OCCN1C[C@@H](C)O[C@@H](C)C1 [Compound 68, (4-Tert-butylphenyl)-(4-{7-[2-(2,6-dimethylmorpholin-4-yl)ethoxy]-6-methoxyquinolin-4-yloxy}phenyl)amine]
28 | 693 nM | COc1cc2nccc(Oc3ccc(Cc4ccc(C(C)(C)C)cc4)cc3)c2cc1OC [Compound 32, 4-[4-(4-Tert-butylbenzyl)phenoxy]-6,7-dimethoxyquinoline]
29 | 41.7 nM | COc1cc2c(Oc3ccc(NC(=O)NCCC(C)(C)C)cc3F)ccnc2cc1OCCCN1CCC(CCO)CC1 [Compound 298, 1-(3,3-Dimethyl-butyl)-3-[3-fluoro-4-(7-{3-[4-(2-hydroxy-ethyl)-1-piperidin-1-yl]-propoxy}-6-methoxy-quinolin-4-yloxy)-phenyl]-urea]
30 | 370 nM | COc1cc2c(Oc3ccc(Nc4ccc(C(C)(C)C)cc4)c(Cl)c3)ccnc2cc1OCCN1CCC(CO)CC1 [Compound 279, [1-(2-{4-[4-(4-Tert-butyl-phenylamino)-3-chloro-phenoxy]-6-methoxy-quinolin-7-yloxy}-ethyl)-piperidin-4-yl]-methanol]
31 | 25.5 nM | COc1cc2c(Oc3ccc(NC(=O)NCCC(C)(C)C)c(Cl)c3)ccnc2cc1OCCCN1CCOCC1 [Compound 205, 1-{2-Chloro-4-[6-methoxy-7-(3-morpholin-4-yl-propoxy)-quinolin-4-yloxy]-phenyl}-3-(3,3-dimethyl-butyl)-urea]
32 | 924 nM | COc1cc2c(Oc3ccc(Nc4ccc(C(C)(C)C)cc4)cc3)ccnc2cc1OCCN(C)C [Compound 40, N1-[4-(Tert-butyl)phenyl]-4-({7-[2-(dimethylamino)ethoxy]-6-methoxy-4-quinolyl}oxy)aniline]
33 | 257 nM | CCCN(CCO)CCOc1cc2nccc(Oc3ccc(Nc4ccc(C(C)(C)C)cc4)cc3)c2cc1OC [Compound 366, 2-[(2-{4-[4-(4-Tert-butyl-phenylamino)-phenoxy]-6-methoxy-quinolin-7-yloxy}-ethyl)-propyl-amino]-ethanol]
